Assay results as given in ChEMBL document CHEMBL4414658, “Melongenaterpenes A-L, Vetispirane-Type Sesquiterpenoids from the Roots of Solanum melongena” (J Nat Prod, 2019).
Activity calls are given as the source filed them.

Tests used:
Format in all cases: functional, cell-based
HepG2 = assay: Cytotoxicity against human HepG2 cells assessed as reduction in cell viability incubated for 24 hrs by MTT assay
HeLa = assay: Cytotoxicity against human HeLa cells assessed as reduction in cell viability incubated for 24 hrs by MTT assay
MCF7 = assay: Cytotoxicity against human MCF7 cells assessed as reduction in cell viability incubated for 24 hrs by MTT assay

Measured: Activity

C=C(CO[C@@H]1O[C@H](CO)[C@@H](O)[C@H](O)[C@H]1O)[C@@H]1CC[C@]2(C1)[C@@H](C(OC)OC)C[C@@H](O)[C@H](O)[C@H]2C
inactive: HepG2 | HeLa | MCF7

C=C(CO)[C@@H]1CC[C@]2(C1)[C@H](CO)C[C@@H](O)C[C@H]2C
inactive: HepG2 | HeLa | MCF7

C=C(CO)[C@@H]1CC[C@]2(C1)[C@H](CO)C[C@@H](O)[C@H](O)[C@H]2C
inactive: HepG2 | HeLa | MCF7

C=C(CO)[C@@H]1CC[C@]2(C1)[C@@H](CO)C[C@@H](O)[C@H](O)[C@H]2C
inactive: HepG2 | HeLa | MCF7

C=C(CO[C@@H]1O[C@H](CO)[C@@H](O)[C@H](O)[C@H]1O)[C@@H]1CC[C@@]2(C1)[C@H](C)[C@@H](O)[C@H](O)C[C@H]2C(OC)OC
inactive: HepG2 | HeLa | MCF7

C=C(CO[C@@H]1O[C@H](CO[C@@H]2OC[C@H](O)[C@H](O)[C@H]2O)[C@@H](O)[C@H](O)[C@H]1O)[C@@H]1CC[C@@]2(C1)C(C)=CC(=O)C[C@H]2C
inactive: HepG2 | HeLa | MCF7
